From ChEMBL document CHEMBL1201862, “PubChem BioAssay data set” (2004) come the findings set out here.

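All cell lines were grown in 96-well plates and treated with compound for 48 hours. Here, GI50 denotes the concentration required for 50% inhibition of growth.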 Activity calls are given as the source filed them. Cut-off read from the data, not from the text of the source: active = GI50 up to about 1.1 µM and inactive = higher. Where only a bound is given, the exact number is not on record here.

Some test systems named below: HCT-116; RPMI-8226; Hs-578T; LOX IMVI; PC-3; ACHN; OVCAR-3; HL-60; RXF 393; U-251; UACC-62; NCI-H23; DMS-114; SNB-75; HOP-62; T47D; MCF7; HT-29; Malme-3M; MOLT-4.
Common to all, as to test: growth of human tumour cells (NCI), 48 h

`Cc1nc2c(o1)C(=O)c1ccccc1/C2=N\c1ccccc1`: the GI50 with HCT-116 was 2.17 µM (inactive); with RPMI-8226, 1.97 µM (inactive); in the assay on Hs-578T it was 1.62 µM (inactive); with LOX IMVI it was 1.59 µM (inactive); in the assay on PC-3, 2.03 µM (inactive); in the assay on ACHN it was 3.18 µM (inactive). In addition, the GI50 in the assay on OVCAR-3 is 1.59 µM (inactive); with HL-60, 2.42 µM (inactive); in the assay on RXF 393, 1.57 µM (inactive); with U-251, 1.76 µM (inactive); with UACC-62, 2.46 µM (inactive); in the assay on NCI-H23 it was 1.38 µM (inactive). Further, the GI50 in the assay on DMS-114 is 1.48 µM (inactive); with SNB-75 it was 2.12 µM (inactive); with HOP-62, 2.45 µM (inactive); with T47D, 2.52 µM (inactive); in the assay on MCF7, 2.37 µM (inactive); in the assay with HT-29 it was 10.2 µM (inactive). In addition, in the assay with Malme-3M, the GI50 was 1.36 µM (inactive).
On to `O=C(c1ccccc1)C1OC12C(=O)Nc1c(Cl)cc(Cl)cc12` (stereo not drawn), for which the GI50 is 23.7 µM (inactive) in the assay on HCT-116; 47.5 µM (inactive) in the assay on RPMI-8226; 23.4 µM (inactive) in the assay with LOX IMVI; 23.8 µM (inactive) in the assay on ACHN; 60.3 µM (inactive) in the assay with OVCAR-3; 16.4 µM (inactive) in the assay with HL-60. For the same molecule, the GI50 is 24.4 µM (inactive) in the assay on RXF 393; 41.5 µM (inactive) in the assay on U-251; 29.9 µM (inactive) with UACC-62; 10.2 µM (inactive) in the assay on MOLT-4; 58.2 µM (inactive) in the assay with NCI-H23; 30.1 µM (inactive) in the assay with DMS-114. In addition, the GI50 is 7.87 µM (inactive) in the assay on SNB-75, > 55.2 µM (inactive) in the assay with HOP-62, 33.6 µM (inactive) in the assay with HT-29 and > 74.5 µM (inactive) with Malme-3M.
As for `CC[C@@]1(O)C(=O)OCc2c1cc1n(c2=O)Cc2c-1nc1ccccc1c2Cl`, the GI50 in the assay with HCT-116 is 0.0168 µM (active); in the assay with RPMI-8226 it was < 0.0151 µM (active); with Hs-578T, 4.52 µM (inactive); with LOX IMVI, < 0.01 µM (active); in the assay on PC-3 it was < 0.0214 µM (active); with ACHN, < 0.01 µM (active). For the same molecule, the GI50 is 0.296 µM (active) in the assay with OVCAR-3; < 0.01 µM (active) in the assay with HL-60; < 0.0132 µM (active) in the assay with RXF 393; < 0.01 µM (active) in the assay on U-251; < 0.01 µM (active) in the assay with UACC-62; < 0.01 µM (active) with MOLT-4. Also, the GI50 is < 0.01 µM (active) in the assay with NCI-H23; < 0.0104 µM (active) in the assay with DMS-114; 0.0123 µM (active) in the assay with SNB-75; < 0.01 µM (active) with HOP-62; < 0.01 µM (active) in the assay with T47D; < 0.01 µM (active) in the assay on MCF7. Further, the values for the GI50 with HT-29 and with Malme-3M were 0.0461 µM (active) and 0.239 µM (active), respectively.
For `O=C1NC(=S)NC(=O)C1=Cc1ccc[nH]1`, the GI50 was 3.48 µM (inactive) in the assay with HCT-116; 3.41 µM (inactive) in the assay with RPMI-8226; 9.06 µM (inactive) in the assay on LOX IMVI; 15 µM (inactive) with ACHN; 7.38 µM (inactive) in the assay with OVCAR-3; 5.27 µM (inactive) in the assay with HL-60. Moreover, the GI50 in the assay with RXF 393 was 2.2 µM (inactive); in the assay with U-251, 27.1 µM (inactive); in the assay on UACC-62, 16.7 µM (inactive); in the assay on MOLT-4, 16.2 µM (inactive); in the assay on NCI-H23 it was 12.4 µM (inactive); in the assay with DMS-114 it was 10.8 µM (inactive). The GI50 with SNB-75 is 18 µM (inactive); in the assay on HOP-62, 32.6 µM (inactive); with HT-29, 4.38 µM (inactive); in the assay with Malme-3M it was 19.9 µM (inactive).
Take `C[N+]1=c2c3cccc4cccc(c(=O)n2CCC1)c43`: the GI50 was 16.1 µM (inactive) in the assay with HCT-116; 19.6 µM (inactive) in the assay with RPMI-8226; 15.3 µM (inactive) in the assay on LOX IMVI; 22.4 µM (inactive) in the assay with ACHN; 22.9 µM (inactive) in the assay with OVCAR-3; 4.36 µM (inactive) in the assay on HL-60. For the same molecule, the GI50 in the assay with RXF 393 is 22.1 µM (inactive); in the assay with U-251, 29.9 µM (inactive); in the assay on UACC-62, 18.7 µM (inactive); with MOLT-4, 19.9 µM (inactive); with NCI-H23 it was 19 µM (inactive); with DMS-114, 20.6 µM (inactive). The GI50 in the assay with SNB-75 is 25.1 µM (inactive); with HOP-62, 31 µM (inactive); with HT-29 it was 20.1 µM (inactive); in the assay on Malme-3M, 18 µM (inactive).
Turning to `O=C1c2c(O)cccc2C(C(=O)CCCCC(=O)C2c3cccc(O)c3C(=O)c3c(O)cccc32)c2cccc(O)c21`, the GI50 in the assay on HCT-116 is 0.67 µM (active); in the assay on RPMI-8226 it was 0.457 µM (active); in the assay on Hs-578T, 0.176 µM (active); in the assay with LOX IMVI it was 0.668 µM (active); in the assay with PC-3 it was 0.107 µM (active); with ACHN, 0.729 µM (active). Also, the GI50 in the assay on OVCAR-3 was 0.547 µM (active); with HL-60, 0.485 µM (active); in the assay on U-251, 0.433 µM (active); in the assay with UACC-62 it was 0.724 µM (active); in the assay with MOLT-4, 0.979 µM (active); in the assay with NCI-H23 it was 0.618 µM (active). Besides, the GI50 in the assay with DMS-114 was 0.522 µM (active); with SNB-75, 0.948 µM (active); in the assay with HOP-62 it was 0.618 µM (active); in the assay with T47D, 0.442 µM (active); with MCF7 it was 0.845 µM (active); with HT-29, 0.641 µM (active). Also, in the assay with Malme-3M, the GI50 was 1.38 µM (inactive).
In the case of `CNC1=Nc2ccc(Cl)cc2C(c2ccccc2)=NN1C`, the GI50 was 66.7 µM (inactive) in the assay with HCT-116; 31.3 µM (inactive) in the assay on RPMI-8226; 60.4 µM (inactive) in the assay with LOX IMVI; > 100 µM (inactive) in the assay on ACHN; 45.4 µM (inactive) in the assay with OVCAR-3; 46 µM (inactive) in the assay with HL-60. The GI50 in the assay on RXF 393 was 17.5 µM (inactive); in the assay on U-251 it was > 100 µM (inactive); in the assay on UACC-62 it was > 100 µM (inactive); in the assay on MOLT-4 it was 36.2 µM (inactive); with NCI-H23 it was > 100 µM (inactive); in the assay on DMS-114 it was 53.2 µM (inactive). Besides, the GI50 was 23.4 µM (inactive) in the assay with SNB-75, > 100 µM (inactive) in the assay with HOP-62, 56.5 µM (inactive) in the assay with HT-29 and 42.9 µM (inactive) with Malme-3M.
`C[N+]12c3ccccc3O[B-]1(c1ccccc1)Oc1ccccc12` (stereo not drawn): the GI50 in the assay on HCT-116 is 38.5 µM (inactive); in the assay with RPMI-8226, 37.4 µM (inactive); in the assay on LOX IMVI, 16.1 µM (inactive); with ACHN it was 14.8 µM (inactive); with OVCAR-3, 31 µM (inactive); with HL-60, 14.5 µM (inactive). For the same molecule, the GI50 is 25.4 µM (inactive) with RXF 393; 16.6 µM (inactive) in the assay with U-251; 37.4 µM (inactive) in the assay on UACC-62; 5.74 µM (inactive) in the assay on MOLT-4; 52.8 µM (inactive) with NCI-H23; 17.6 µM (inactive) in the assay with DMS-114. Also, the GI50 with SNB-75 is 19.9 µM (inactive); in the assay with HOP-62, 72.1 µM (inactive); in the assay on HT-29, 73.5 µM (inactive); in the assay with Malme-3M, 40 µM (inactive).
